What was measured:
Type in all cases: cell-based
N2A cells = assay: ROS by H2-DCFDA probe after proton irradiation, N2A; settings: 50 μM, positive control
Excerpt: (§1) Cell lines were irradiated using pencil beam scanning (PBS) proton beams produced by IBA ProteusOne (Ion Beam Applications, Louvain-la-Neuve, Belgium). Single layer mono-energy 227 MeV pencil beams with uniform spacing of 0.25 cm between each spot were used to create a large field size with uniform dose distribution (±2%) that encompassed all sample wells containing the cells. A fixed source to surface distance (SSD) setup and gantry at 180 degrees was used to delivery 0.5, 1, 2, 4, and 6 Gray (Gy) dose of ionizing radiation to cells. The cells were place at an 8 cm depth, with a linear energy transfer (LET) of approximately 1.7 keV/μm, using solid water slabs as a buildup. […] The monitor units needed to deliver the intended dose were calculated using the measure dose/MU values.
(§2) Post radiation, 2′,7′-dichlorodihydrofluorescein diacetate (H2-DCFDA) probes were used to measure the level of reactive oxygen species (ROS) post-proton radiation (1 Gy, 230 MeV proton beam). […] A fluorescence microplate reader (SpectraMax M5, Molecular Devices Corporation, California, USA) was used to detect the generation of fluorescent DCF molecules with an excitation filter of 485 nm and an emission filter of 525 nm, with a 515 nm cutoff filter. […] Following irradiation, the cells were transported back for plate reading, 30 minutes post radiation.

HepG2 cells = assay: ROS by H2-DCFDA probe after proton irradiation, HepG2; settings: control HepG2 cells, 50 μM, positive control
Excerpt: as §1, §2

NIH3T3 cells = assay: ROS by H2-DCFDA probe after proton irradiation, NIH3T3; settings: NIH3T3, 50 μM, positive control
Excerpt: as §1, §2

HUVEC cells = assay: ROS by H2-DCFDA probe after proton irradiation, HUVEC; settings: 50 μM, positive control
Excerpt: as §1, §2

Measured: ROS (H2-DCFDA fluorescence)

CC(=O)N[C@@H](CS)C(=O)O [NAC, N-acetyl cysteine, reference compound]
decrease in ROS: all assays above
